The values that follow come from article PMC4501687, “Design of a Selective Substrate and Activity Based Probe for Human Neutrophil Serine Protease 4” (PLoS ONE, 2015).

“And” between values parts separate entries of the source, which are not always exact repeats. Identical values can stand only once. Like-named read-outs stand apart in the source and are kept apart here. * marks the point of attachment. ACC = NC(=O)Cc1cc(=O)oc2cc(N*)ccc12; CH2Cl = ClC*

One assay has as its target T1, PR3 (Homo sapiens, UniProt P24158).
T1 construct: purchased Athens Research Technology, Athens, Georgia, USA
T1 sequence (P24158 28-256): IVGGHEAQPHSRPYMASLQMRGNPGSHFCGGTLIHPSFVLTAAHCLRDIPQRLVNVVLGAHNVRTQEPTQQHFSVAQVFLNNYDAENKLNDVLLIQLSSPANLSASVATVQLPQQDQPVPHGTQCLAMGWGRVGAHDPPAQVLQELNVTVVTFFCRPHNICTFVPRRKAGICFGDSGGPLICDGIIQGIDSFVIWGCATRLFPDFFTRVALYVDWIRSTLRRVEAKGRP
The assay is described as follows: Fluorogenic substrate hydrolysis kinetics with PR3. The assay is classed as biochemical. As for the experimental part:
(§1) Kinetic parameters of selected substrates were determined in 50 mM Hepes, 0.1 M NaCl, 0.1%TRITON-X100, pH 7.45 assay buffer on 96 wells Corning plates. Measurements were performed for a minimum of 20 minutes. The excitation wavelength was 355 nm, and the emission wavelength was 460 nm, with a cutoff of 455 nm. Human NE and CatG were purchased from Biocentrum, Krakow, Poland and PR3 from Athens Research Technology, Athens, Georgia, USA. Recombinant human NSP4 was expressed and purified as previously described.
(§2) In addition to NSP4, neutrophils contain three other structurally-related serine proteases NE, PR3 and CatG [1] that are also stored in azurophilic granules. To estimate the degree of eventual cross reactivity of the optimal substrate with these three serine proteases, we measured kinetic parameters for each enzyme on PK421. […] In the case of CatG we were unable to saturate the enzyme and therefore could not calculate the individual values of kcat and Km.

The target in assay [1] is T2, NSP4 (Homo sapiens, UniProt Q6UWY2).
T2 construct: made in house
T2 sequence (Q6UWY2 32-283): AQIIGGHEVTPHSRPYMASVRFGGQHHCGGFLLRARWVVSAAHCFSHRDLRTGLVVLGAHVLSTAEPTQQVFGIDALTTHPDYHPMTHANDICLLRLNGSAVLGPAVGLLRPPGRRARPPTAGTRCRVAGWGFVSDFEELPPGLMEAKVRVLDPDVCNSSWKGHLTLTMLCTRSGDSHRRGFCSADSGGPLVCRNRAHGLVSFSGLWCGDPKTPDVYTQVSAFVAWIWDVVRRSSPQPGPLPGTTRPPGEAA
Description: SDS-PAGE / streptavidin blot labeling of purified NSP4 by probe. The assay is classed as binding. The note with it: 100 nM NSP4 preincubated with inhibitor 30 min 37°C, then PK401 up to 2000 nM for 20 min. Here is the method: 100nM of NSP4 was incubated with competing inhibitor—Ac-IVPR-CMK for 30 minutes at 37°C and then treated with different concentrations of probe—PK401 (2000nM and 1000nM) for 20 minutes at 37°C. Separately, 100nM of NSP4 was incubated with five different concentrations of probe- 2000nM, 1000nM, 100nM, 10nM, and 1 nM for 20 minutes in 37°C. As a control 100nM PK401 was incubated with assay buffer.
Samples were denatured and run in 4–12% SDS PAGE following transfer to nitrocellulose membrane. The membrane was blocked with 1.5% BSA in TBST overnight at 4°C and treated with IRDye800CW Streptavidin (dilution 1:10000 with 1.5% BSA in TBST) for 45 minutes. Then enzyme was visualized using a Li-cor fluorescence imager and Odyssey Molecular Modeling Software.
SDS-page and Western Blot […]
A standard SDS broad spectrum marker (Biorad) was used (Fig. 4A, lane 1). […]
minutes in 37° C (Fig. 4, lanes 4, 5, 6, 7, 8). […] Then enzyme was visualized using a Li-cor fluorescence imager and Odyssey Molecular Modeling Software. […]
The membrane was blocked with 1.5% BSA in TBST overnight at 4° C and treated with IRDye800CW Streptavidin (dilution 1:10000 with 1,5% BSA in TBST) for 45 minutes. Then PK401 was visualized using a Li-cor fluorescence imager and Odyssey Molecular Modeling Software.

Assay [2] deals with T2, NSP4. The assay is described as follows: Fluorogenic substrate hydrolysis kinetics with NSP4. Format: biochemical. As for the experimental part: as §1
To 20μl of substrates dissolved in assay buffer at known concentration ranges (PK421 and PK431–320–1μM, PK417 and PK418–460–27μM), 80μl of NSP4 (2.9nM), preincubated for 20 minutes at 37°C in buffer, was added. Km, kcat and kcat/Km parameters/constants were calculated using GraphPad Prism and Excel software. Each experiment was repeated three times, and the results are presented as an average +/- S.D.

For another assay, the target named is T3, NE (Homo sapiens, UniProt P08246).
T3 construct: purchased Biocentrum, Krakow, Poland
T3 sequence (P08246 30-267): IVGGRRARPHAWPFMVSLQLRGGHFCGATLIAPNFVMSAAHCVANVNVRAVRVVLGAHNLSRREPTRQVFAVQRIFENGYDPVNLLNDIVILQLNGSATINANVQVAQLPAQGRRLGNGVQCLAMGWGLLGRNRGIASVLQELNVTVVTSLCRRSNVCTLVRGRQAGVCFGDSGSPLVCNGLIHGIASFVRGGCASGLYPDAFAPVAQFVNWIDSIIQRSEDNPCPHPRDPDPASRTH
The assay is described as follows: Fluorogenic substrate hydrolysis kinetics with NE. Format: biochemical. As for the experimental part:
as §1, §2

Where [3] appears, read: Table 1, NSP4 2.9 nM preincubated 20 min 37°C, 50 mM Hepes, 0.1 M NaCl, 0.1% TRITON-X100, pH 7.45, ACC fluorescence ex 355/em 460 nm, average ± S.D., minimum of 2 experiments, SD, read-out: Km.
Where [4] appears, read: Table 1, NSP4 2.9 nM, Hepes buffer pH 7.45, 37°C, ACC fluorescence, average ± S.D., minimum of 2 experiments, SD.
Setting [5] is: Table 1 and text, NSP4 2.9 nM, Hepes buffer pH 7.45, 37°C, ACC fluorescence, average ± S.D., minimum of 2 experiments.
[6] abbreviates: Table 2, hydrolysis by NSP4, Hepes buffer pH 7.45.

On to “Ac-Glu(OBzl)-Lys(Ac)-hPro(OBzl)-Abu-ACC [assay substrate for PR3, reference compound]”, for which the Km at PR3 (Table 3, assay substrate for PR3, read-out: Km of the substrate used for analysis) amounted to 13.7 ± 0.67 µM.

For Ac-IVPR-CH2Cl [reference compound], the “Effect of NSP4 active site blocking on PK401 binding” value at NSP4 [1] was “prevented binding”.

Consider “Ac-IVPR-{ACC} (SMILES CC[C@H](C)[C@H](NC(C)=O)C(=O)N[C@H](C(=O)N1CCC[C@H]1C(=O)N[C@@H](CCCNC(=N)N)C(=O)Nc1ccc2c(CC(N)=O)cc(=O)oc2c1)C(C)C) [PK417, fluorogenic NSP4 substrate of natural amino acids]”, for which the Km on NSP4 [2] (setting [3]) is 96 ± 16 µM. On NSP4 [2] (setting [4]), the kcat was found to be 0.2 ± 0.02 s⁻¹. In addition, the kcat/Km on NSP4 [2] (setting [5]) was 2100 M⁻¹ s⁻¹ and 2100 ± 300 M⁻¹ s⁻¹.

In the case of “Ac-Nle(OBzl)-Met(O)2-Oic-Abu-ACC [assay substrate for NE, reference compound]”, the Km at NE (Table 3, assay substrate for NE, read-out: Km of the substrate used for analysis) came to 0.28 ± 0.08 µM.

For “Ac-RVPR-{ACC} (SMILES CC(=O)N[C@@H](CCCNC(=N)N)C(=O)N[C@H](C(=O)N1CCC[C@H]1C(=O)N[C@@H](CCCNC(=N)N)C(=O)Nc1ccc2c(CC(N)=O)cc(=O)oc2c1)C(C)C) [PK418, fluorogenic NSP4 substrate of natural amino acids]”, at NSP4 [2] (setting [3]), the Km worked out at 67 ± 10 µM. Besides, the kcat on NSP4 [2] (setting [4]) is 0.06 ± 0.003 x 10^−3 s^-1. For the same substance, the kcat/Km at NSP4 [2] (setting [5]) is 960 ± 190 M⁻¹ s⁻¹.

In the case of “Ac-hCha-Phe(guan)-Oic-Arg-ACC [PK421, optimal fluorogenic NSP4 substrate with unnatural amino acids]”, the kcat/Km entry on PR3 (Table 2, hydrolysis by PR3, NA = no activity detected) is “Lack of measurable activity”; on NSP4 [2] (setting [5]), 32000 M⁻¹ s⁻¹ and 32000.0 ± 4500 M⁻¹ s⁻¹; on NSP4 [2] (setting [6]), 32000 ± 4500 M⁻¹ s⁻¹; on NE (Table 2, hydrolysis by NE, NA = no activity detected) it was “Lack of measurable activity”. The “Increase of kcat/Km relative to PK431 (Pro to Oic at P2)” value at NSP4 [2] (NSP4, PK421 versus PK431) is 39%. For the same substance, the “Fold more efficiently cleaved by NSP4 than PK417 (kcat/Km ratio)” value at NSP4 [2] (NSP4, versus best substrate of only natural amino acids) is on record as “around 15 times”. In addition, the Km was 61 ± 9.1 µM on NSP4 [2] (setting [3]) and 61 ± 9.1 µM at NSP4 [2] (Table 2, hydrolysis by NSP4, Hepes buffer pH 7.45, read-out: Km). Also, the kcat at NSP4 [2] (setting [4]) and at NSP4 [2] (setting [6]) was 2.0 ± 0.54 s⁻¹ each time.

On to “Ac-hCha-Phe(guan)-Pro-Arg-ACC [PK431, fluorogenic NSP4 substrate with unnatural amino acids]”, for which the Km worked out at 53 ± 0.8 µM on NSP4 [2] (setting [3]) and 53 ± 0.8 µM on NSP4 [2] (Table 3, assay substrate for NSP4, read-out: Km of the substrate used for analysis). In addition, at NSP4 [2] (setting [4]), the kcat was found to be 1.2 ± 0.017 s⁻¹. The kcat/Km at NSP4 [2] (setting [5]) was found to be 23000 ± 11 M⁻¹ s⁻¹.

A word on the Km: it is the substrate concentration at which the rate is half of its maximum. For orientation: kcat means the maximal rate divided by the concentration of active sites. Broadly, the kcat/Km is the second-order rate constant that governs catalysis at low substrate concentration.
